Patent US8871756B2 (Hoffmann-La Roche Inc., priority 2011, dated 2014)
Structures can show the parent of a compound that is named as a salt.

System: RSV Long strain
Assay: Viral cytopathic effect (CPE) assay, anti-RSV activity
Format: cell-based, Respiratory Syncytial Virus
Conditions: human respiratory syncytial virus, 144 h, RSV Long strain (ATCC); cell viability after 6 days, Cell Counting kit-8
Method: Viral cytopathic effect (CPE) assay: To measure anti-RSV activity of compounds, 96-well plates are seeded with 6×10^3 cells per well in Dulbecco's modified Eagle's medium (DMEM) containing 10% fetal bovine serum (FBS). Cells are infected the next day with sufficient RSV Long strain (ATCC) to produce an approximately 80-90% cytopathic effect after 6 days, in the presence of serial half-log diluted compound in a total volume of 200 μL per well. The viability of cells is assessed after 6 days using Cell Counting kit-8 (Dojindo Molecular Technologies). The absorbance at 450 nm and referenced at 630 nm is measured to determine 50% effective concentration (EC50).
The compounds of the present invention were tested for their anti-RSV activity, and the activation as described herein. The Examples were tested in the above assay and found to have EC50 of about 0.0001 μM to about 10 μM.

EC50 [µM] | SMILES
0.009 | Cc1ccc2nc(N3CCS(=O)(=O)c4ccccc4C3)cc(NCC(F)(F)CN)c2c1 [Example 3-19, N-[2-(1,1-Dioxido-2,3-dihydro-1,4-benzothiazepin-4(5H)-yl)-6-methylquinolin-4-yl]-2,2-difluoropropane-1,3-diamine]
0.006 | Cc1ccc2nc(N3CCS(=O)(=O)c4ccccc4C3)cc(NCC(F)CN)c2c1 (stereo not shown) [Example 3-21, N-[2-(1,1-Dioxido-2,3-dihydro-1,4-benzothiazepin-4(5H)-yl)-6-methylquinolin-4-yl]-2-fluoropropane-1,3-diamine]
1.39 | Cc1ccc2nc(N3CCS(=O)(=O)c4ccccc4C3)cc(NC3CCOCC3)c2c1 [Example 3-27, 2-(1,1-Dioxido-2,3-dihydro-1,4-benzothiazepin-4(5H)-yl)-6-methyl-N-(tetrahydro-2H-pyran-4-yl)quinolin-4-amine]
0.149 | Cc1ccc2nc(N3CCS(=O)(=O)c4ccccc4C3)cc(NCCN3CCNCC3)c2c1 [Example 3-28, 2-(1,1-Dioxido-2,3-dihydro-1,4-benzothiazepin-4(5H)-yl)-6-methyl-N-[2-(piperazin-1-yl)ethyl]quinolin-4-amine]
0.022 | Cc1ccc2nc(N3CCS(=O)(=O)c4ccccc4C3)cc(NCC3CCNCC3)c2c1 [Example 3-29, 2-(1,1-Dioxido-2,3-dihydro-1,4-benzothiazepin-4(5H)-yl)-6-methyl-N-(piperidin-4-ylmethyl)quinolin-4-amine]
0.014 | CNCCNc1cc(N2CCS(=O)(=O)c3ccccc3C2)nc2ccc(C)cc12 [Example 3-31, N-[2-(1,1-Dioxido-2,3-dihydro-1,4-benzothiazepin-4(5H)-yl)-6-methylquinolin-4-yl]-N′-methylethane-1,2-diamine]
0.037 | Cc1ccc2nc(N3CCS(=O)(=O)c4ccccc4C3)cc(NCCN(C)C)c2c1 [Example 3-32, N′-[2-(1,1-Dioxido-2,3-dihydro-1,4-benzothiazepin-4(5H)-yl)-6-methylquinolin-4-yl]-N,N-dimethylethane-1,2-diamine]
0.426 | CNc1cc(N2CCS(=O)(=O)c3ccccc3C2)nc2ccc(C)cc12 [Example 3-33, 2-(1,1-Dioxido-2,3-dihydro-1,4-benzothiazepin-4(5H)-yl)-N,6-dimethylquinolin-4-amine trifluoroacetate]
0.013 | Cc1ccc2nc(N3CCS(=O)(=O)c4ccccc4C3)cc(NCC3CCCN3)c2c1 (stereo not shown) [Example 3-35, 2-(1,1-Dioxido-2,3-dihydro-1,4-benzothiazepin-4(5H)-yl)-6-methyl-N-(pyrrolidin-2-ylmethyl)quinolin-4-amine]
0.017 | CCNCCNc1cc(N2CCS(=O)(=O)c3ccccc3C2)nc2ccc(C)cc12 [Example 3-37, N-[2-(1,1-Dioxido-2,3-dihydro-1,4-benzothiazepin-4(5H)-yl)-6-methylquinolin-4-yl]-N′-ethylethane-1,2-diamine]
0.0439 | Cc1ccc2nc(N3CCS(=O)(=O)c4ccccc4C3)cc(NCCO)c2c1 [Example 3-38, 2-{[2-(1,1-Dioxido-2,3-dihydro-1,4-benzothiazepin-4(5H)-yl)-6-methylquinolin-4-yl]amino}ethanol]
0.03 | Cc1ccc2nc(N3CCS(=O)(=O)c4ccccc4C3)cc(NC3CCNCC3)c2c1 [Example 3-39, 2-(1,1-Dioxido-2,3-dihydro-1,4-benzothiazepin-4(5H)-yl)-6-methyl-N-(piperidin-4-yl)quinolin-4-amine]
0.022 | Cc1ccc2nc(N3CCS(=O)(=O)c4ccccc4C3)cc(NC3CCCNC3)c2c1 (stereo not shown) [Example 3-40, 2-(1,1-Dioxido-2,3-dihydro-1,4-benzothiazepin-4(5H)-yl)-6-methyl-N-(piperidin-3-yl)quinolin-4-amine]
0.071 | Cc1ccc2nc(N3CCS(=O)(=O)c4ccccc4C3)cc(NCC3CCCCN3)c2c1 (stereo not shown) [Example 3-41, 2-(1,1-Dioxido-2,3-dihydro-1,4-benzothiazepin-4(5H)-yl)-6-methyl-N-(piperidin-2-ylmethyl)quinolin-4-amine]

The remaining lines, values behind:

SMILES | EC50 [µM]
NCC(F)(F)CNc1cc(N2CCS(=O)(=O)c3ccccc3C2)nc2ccc(Cl)cc12 [Example 3-20, N-[6-Chloro-2-(1,1-dioxido-2,3-dihydro-1,4-benzothiazepin-4(5H)-yl)quinolin-4-yl]-2,2-difluoropropane-1,3-diamine] | 0.507
NC1(CNc2cc(N3CCS(=O)(=O)c4ccccc4C3)nc3ccc(Cl)cc23)COC1 [Example 3-22, N-[(3-Aminooxetan-3-yl)methyl]-6-chloro-2-(1,1-dioxido-2,3-dihydro-1,4-benzothiazepin-4(5H)-yl)quinolin-4-amine] | 0.032
NC1(CNc2cc(N3CCS(=O)(=O)c4ccccc4C3)nc3ccc(CO)cc23)COC1 [Example 3-23, [4-{[(3-Aminooxetan-3-yl)methyl]amino}-2-(1,1-dioxido-2,3-dihydro-1,4-benzothiazepin-4(5H)-yl)quinolin-6-yl]methanol] | 0.002
Cc1cc2c(NCC3(N)COC3)cc(N3CCS(=O)(=O)c4ccccc4C3)nc2cc1F [Example 3-24, N-[(3-Aminooxetan-3-yl)methyl]-2-(1,1-dioxido-2,3-dihydro-1,4-benzothiazepin-4(5H)-yl)-7-fluoro-6-methylquinolin-4-amine] | 0.021
Cc1ccc2nc(N3CCS(=O)(=O)c4ccccc4C3)cc(NCC3(N)COC3)c2c1F [Example 3-25, N-[(3-Aminooxetan-3-yl)methyl]-2-(1,1-dioxido-2,3-dihydro-1,4-benzothiazepin-4(5H)-yl)-5-fluoro-6-methylquinolin-4-amine] | 0.022
CC(C)(N)CNc1cc(N2CCS(=O)(=O)c3ccccc3C2)nc2ccc(Cl)cc12 [Example 3-26, N^˜1^˜-[6-Chloro-2-(1,1-dioxido-2,3-dihydro-1,4-benzothiazepin-4(5H)-yl)quinolin-4-yl]-2-methylpropane-1,2-diamine] | 0.876
Cc1ccc2nc(N3CCS(=O)(=O)c4ccccc4C3)cc(NCCCCCCCN)c2c1 [Example 3-30, N-[2-(1,1-Dioxido-2,3-dihydro-1,4-benzothiazepin-4(5H)-yl)-6-methylquinolin-4-yl]heptane-1,7-diamine] | 7.81
Cc1ccc2nc(N3CCS(=O)(=O)c4ccccc4C3)cc(N3C[C@H](O)[C@@H](O)C3)c2c1 [Example 3-34, (3S,4S)-1-[2-(1,1-Dioxido-2,3-dihydro-1,4-benzothiazepin-4(5H)-yl)-6-methylquinolin-4-yl]pyrrolidine-3,4-diol] | 0.085
Cc1ccc2nc(N3CCS(=O)(=O)c4ccccc4C3)cc(N3CCCNCC3)c2c1 [Example 3-36, 4-[4-(1,4-Diazepan-1-yl)-6-methylquinolin-2-yl]-2,3,4,5-tetrahydro-1,4-benzothiazepine 1,1-dioxide] | 0.092
Cc1ccc2nc(N3CCS(=O)(=O)c4ccccc4C3)cc(NCCNCCO)c2c1 [Example 3-42, 2-[(2-{[2-(1,1-Dioxido-2,3-dihydro-1,4-benzothiazepin-4(5H)-yl)-6-methylquinolin-4-yl]amino}ethyl)amino]ethanol] | 0.007
Cc1ccc2nc(N3CCS(=O)(=O)c4ccccc4C3)cc(NCC(F)(F)C(F)(F)CN)c2c1 [Example 3-43, N-[2-(1,1-Dioxido-2,3-dihydro-1,4-benzothiazepin-4(5H)-yl)-6-methylquinolin-4-yl]-2,2,3,3-tetrafluorobutane-1,4-diamine] | 2.39
